This note sets out measurements from US20220241378A1, “COMPOSITIONS AND METHODS FOR TREATMENT OF CHRONIC GRANULOMATOUS DISEASE” (priority 2019, published 2022).

Assay [1] has as its system monocytes from CGD patients. Nature of the assay: Monocytes from CGD patients exposed to Aspergillus conidia in vitro: LC3B and HIF-1α immunofluorescence. Format: cell-based, human. As for the experimental part:
Next, macrophages were purified from lungs of C57BL/6 and p47phox-/- mice and pulsed in vitro with A. fumigatus conidia in the presence of Tβ4.
Defective Tβ4 expression (FIG. 2G) and restoration of HIF-1α expression upon administration of Tβ4 (FIG. 2H) was also observed in the colon. […] Immunoblotting, normalization was performed on mouse β-actin or GAPDH and corresponding pixel density or ratio is depicted. For immunofluorescence, nuclei were counterstained with DAPI. Photographs were taken with a high-resolution microscope (Olympus BX51), 40× and 100× magnification. LC3 mean fluorescence intensity (MFI) was measured with the ImageJ software. *p<0.05, p47^phox-/- vs C57BL/6 mice. None, unpulsed and untreated cells. Ctrl, Recombinant (r) Tβ4 used as positive control.
RAW264.7 cells (ATCC) were grown in supplemented RPMI medium. […] Cells were treated as above and evaluated for cellular autophagy markers. […] Cells were assessed for LC3 and HIF-1α expression by immunofluorescence.
For immunofluorescence, monocytes from CGD patients or controls were grown in supplemented RPMI and placed on microscope glass slides at 37° C. for adhesion. […] Images were acquired using a fluorescence microscope (BX51, Olympus) and the analySIS image processing software (Olympus).

For assay [2], the system named is p47phox-/- mice infected intranasally with A. fumigatus conidia. Nature of the assay: Survival of p47phox-/- mice infected intranasally with A. fumigatus conidia. In kind it is in vivo. The protocol: To determine whether Tβ4 ameliorates tissue and immune pathologies in CGD mice the inventors of the present disclosure conducted experiments measuring the effect of Tβ4 in mice with aspergillosis and colitis. Specifically, mice were monitored for fungal growth, antifungal activity of effector cells, survival, lung histopathology, innate and adaptive Th immunity. […] Gross lung pathology and histological examination was conducted on p47phox-/- mice. […] Conversely, Tβ4 deficiency by means of siTβ4 administration promoted lung pathology in C57BL/6 mice (FIG. 10B).
Viable conidia from the A. fumigatus Af293 strain were obtained as described (De Luca et al., 2012). Mice were anesthetized in a plastic cage by inhalation of 3% isoflurane (Forane Abbot) in oxygen before intranasal instillation of 2×10^7 resting conidia/20 μl saline. For survival curves, p47^phox-/- mice were challenged with […] conidia/20 μl saline. […] Fungal burden was determined by qPCR and expressed as conidial equivalents (CE). […] Fungal burden was quantified by qPCR by using the sequences for the multicopy 18S ribosomal DNA gene. […]
GraphPad Prism 6.01 program (GraphPad Software) was used for analysis. Data are expressed as mean ±SD. Statistical significance was calculated by two-way ANOVA (Tukey's or Bonferroni's post hoc test) for multiple comparisons. […] Cell fluorescence intensity was measured by using the ImageJ software.

As for Thymosin β4 [Tβ4], the HIF-1α expression result in assay [1] (monocytes from CGD patients challenged with Aspergillus conidia (FIG. 2I)) is given as “increased”. Besides, the LC3B expression entry in assay [1] (monocytes from CGD patients, pre-treated, stimulated 2 hours with the fungus (FIG. 1E)) was “increased”. Besides, in assay [2] (p47phox-/- mice treated for 5 days (FIG. 9)), the “mice survived at the time when all untreated mice had died” value is on record as “more than 50%”. Also, the “survival of infected mice” value in assay [2] (p47phox-/- mice treated for 5 days vs untreated (FIG. 9)) was “significantly increased”.
